Among the data in ChEMBL document CHEMBL1130633, “Beta-analogs of PLG (L-prolyl-L-leucyl-glycinamide): ex-chiral pool syntheses and dopamine D2 receptor modulating effects” (Bioorg Med Chem Lett, 1998) are Binding values, retold here.

Where a SMILES comes first, the peptide text is derived from it.

This experiment addresses D(2) dopamine receptor (Bos taurus) (UniProt P20288). As to the kind of experiment: Compound was evaluated for its ability to enhance the binding of the dopamine receptor agonist [3H]pramipexole to Dopamine receptor D2 at a concentration of 10E-9 M.

Sequence of D(2) dopamine receptor (Bos taurus) (P20288 whole entry): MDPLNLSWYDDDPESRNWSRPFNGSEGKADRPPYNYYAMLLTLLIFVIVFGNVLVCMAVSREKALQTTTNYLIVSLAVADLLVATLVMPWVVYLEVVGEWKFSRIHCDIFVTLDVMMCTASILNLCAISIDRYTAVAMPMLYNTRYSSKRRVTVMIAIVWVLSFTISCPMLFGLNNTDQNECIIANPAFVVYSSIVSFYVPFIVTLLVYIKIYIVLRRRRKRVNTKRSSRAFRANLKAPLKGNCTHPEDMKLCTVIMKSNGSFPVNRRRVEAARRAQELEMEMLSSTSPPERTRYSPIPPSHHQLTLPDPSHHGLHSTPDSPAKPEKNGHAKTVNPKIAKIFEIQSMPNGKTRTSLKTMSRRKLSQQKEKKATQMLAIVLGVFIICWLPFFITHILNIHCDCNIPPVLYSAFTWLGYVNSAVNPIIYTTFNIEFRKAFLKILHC

For the molecule `CC(C)C[C@H](NC(=O)[C@@H]1CCNC1)C(=O)NCC(N)=O`, the Binding came out at 104%.

`CC(C)C[C@H](NC(=O)[C@H]1CNC[C@H]1Cc1ccccc1)C(=O)NCC(N)=O`: the Binding was found to be 99.6%.

Take `CC(C)C[C@H](NC(=O)[C@H]1CNC[C@@H]1Cc1ccccc1)C(=O)NCC(N)=O`: the Binding was 109%.

In the case of `CC(C)C[C@H](NC(=O)[C@@H]1CNC[C@H]1Cc1ccccc1)C(=O)NCC(N)=O`, the Binding was 108%.

On to `CC(C)C[C@H](NC(=O)[C@H]1CCNC1)C(=O)NCC(N)=O`, for which the Binding came to 107%.

In the case of `CC(C)C[C@H](NC(=O)[C@@H]1CCCN1)C(=O)NCC(N)=O` (H-Pro-Leu-Gly-NH2), the Binding was determined as 109%.

Consider `CC(C)C[C@H](NC(=O)[C@@H]1CNC[C@@H]1Cc1ccccc1)C(=O)NCC(N)=O`, for which the Binding came out at 104%.
